Assay [1] addresses BaF3_HER2WT cells (Homo sapiens, UniProt P04626). The assay can be described thus: Cell growth inhibition assay (CellTiterGlo), BaF3_HER2WT. The assay is classed as cell-based. The following applies: 3-day treatment, CellTiterGlo, read-out: Cell growth inhibition activity, HER2 WT. Background: Cellular ATP, detected with luciferase, serves as a proxy for viable cell number.
Assay [2] has as its target BaF3_EGFRWT cells (Homo sapiens, UniProt P00533). The assay can be described thus: Cell growth inhibition assay (CellTiterGlo), BaF3_EGFRWT. The assay is classed as cell-based. The settings on record: 3-day treatment, CellTiterGlo, read-out: Cell growth inhibition activity, EGFR WT.
Assay [3] deals with BaF3_HER2YVMA cells (Homo sapiens, UniProt P04626, DUP772-775, cells depend on it). The assay can be described thus: Cell growth inhibition assay (CellTiterGlo), BaF3_HER2YVMA. It is filed as cell-based. The following applies: 3-day treatment, CellTiterGlo, read-out: Cell growth inhibition activity, HER2 - YVMA.
Assay [4] has as its target T1, wtEGFR (Homo sapiens, UniProt P00533).
T1 construct: purchased Invitrogen PR7295B
Nature of the assay: HotSpot radiometric kinase activity assay, wtEGFR. The following applies: biochemical activity, 4 nM wtEGFR, 10 μM 33P-ATP, 2 hours, read-out: EGFR WT IC50. Here is the method:
(§1) The purpose of the wtERBB2, ERBB2-A775_G776insYVMA (ERBB2YVMA), wtEGFR biochemical assay was to evaluate the inhibition (% inhibition and IC50 values) of the small molecule inhibitors by using the “HotSpot” radiometric kinase activity assay. HotSpot assays monitor the production of kinase substrate by the radioactive gamma phosphate of adenosine triphosphate (33P-ATP) during biochemical reactions. HotSpot assays was performed in steps upon completion of the kinase reaction: deposition of a reaction mixture aliquot onto P81 ion exchange paper, extensive washing of the aforementioned P81 paper using phosphoric acid to remove unbound radiolabeled 33P-ATP from the P81 paper, and finally visualization and quantification of the dried P81 paper utilizing a phosphoimager. […] Typical reaction solutions (10 μL, final reaction volume) contained the following buffer conditions: 20 mM Hepes (pH 7.5), 10 mM MgCl2, 1 mM EGTA, 0.01% Brij35, 0.02 mg/mL BSA, 0.1 mM Na3VO4, 2 mM DTT, 1% DMSO. The assay was primed by preparing a fresh 0.2 mg/mL solution of pEY (Sigma Cat: P7244) substrate in the reaction buffer and supplementing that solution with […] of MnCl2 as substrate cofactor (Sigma Cat: M9522). The kinase of interest was then added to the solution at the appropriate concentration (30 nM wtERBB2 from, or 20 nM ERBB2YVMA, or 4 nM wtEGFR) and gently mixed prior to delivery of compound in 100% DMSO by acoustic dispensing (Beckman Echo550). Compound, Kinase, and substrate were allowed to incubate for 20 min at room temperature prior to the initiation of the reaction by addition of 33P-ATP (PerkinElmer Cat: NEG602, final conc 10 μM). […] IC50 determinations were made from a plot of kinase activity as a function of inhibitor concentration fit to the 4-parameter IC50 equation with the enzyme concentration held constant using GraphPad Prism (San Diego).

Assay [5] concerns the target T2, ERBB2-A775_G776insYVMA (ERBB2YVMA) (Homo sapiens, UniProt P04626, INS775YVMA).
T2 construct: purchased SignalChem E27-13BG
Nature of the assay: HotSpot radiometric kinase activity assay, ERBB2YVMA. The following applies: biochemical activity, 20 nM ERBB2YVMA, 10 μM 33P-ATP, 2 hours, read-out: HER2 - YVMA IC50. Here is the method:
as §1

In assay [6] the target is T3, wtERBB2 (Her2 WT) (Homo sapiens, UniProt P04626).
T3 construct: purchased Reaction Biology Kin-21-497
Nature of the assay: HotSpot radiometric kinase activity assay, wtERBB2. The settings on record: biochemical activity, 30 nM wtERBB2, 10 μM 33P-ATP, 2 hours. Here is the method: as §1

pIC50: −log10 of the molar value.

T1 sequence (P00533 25-1210): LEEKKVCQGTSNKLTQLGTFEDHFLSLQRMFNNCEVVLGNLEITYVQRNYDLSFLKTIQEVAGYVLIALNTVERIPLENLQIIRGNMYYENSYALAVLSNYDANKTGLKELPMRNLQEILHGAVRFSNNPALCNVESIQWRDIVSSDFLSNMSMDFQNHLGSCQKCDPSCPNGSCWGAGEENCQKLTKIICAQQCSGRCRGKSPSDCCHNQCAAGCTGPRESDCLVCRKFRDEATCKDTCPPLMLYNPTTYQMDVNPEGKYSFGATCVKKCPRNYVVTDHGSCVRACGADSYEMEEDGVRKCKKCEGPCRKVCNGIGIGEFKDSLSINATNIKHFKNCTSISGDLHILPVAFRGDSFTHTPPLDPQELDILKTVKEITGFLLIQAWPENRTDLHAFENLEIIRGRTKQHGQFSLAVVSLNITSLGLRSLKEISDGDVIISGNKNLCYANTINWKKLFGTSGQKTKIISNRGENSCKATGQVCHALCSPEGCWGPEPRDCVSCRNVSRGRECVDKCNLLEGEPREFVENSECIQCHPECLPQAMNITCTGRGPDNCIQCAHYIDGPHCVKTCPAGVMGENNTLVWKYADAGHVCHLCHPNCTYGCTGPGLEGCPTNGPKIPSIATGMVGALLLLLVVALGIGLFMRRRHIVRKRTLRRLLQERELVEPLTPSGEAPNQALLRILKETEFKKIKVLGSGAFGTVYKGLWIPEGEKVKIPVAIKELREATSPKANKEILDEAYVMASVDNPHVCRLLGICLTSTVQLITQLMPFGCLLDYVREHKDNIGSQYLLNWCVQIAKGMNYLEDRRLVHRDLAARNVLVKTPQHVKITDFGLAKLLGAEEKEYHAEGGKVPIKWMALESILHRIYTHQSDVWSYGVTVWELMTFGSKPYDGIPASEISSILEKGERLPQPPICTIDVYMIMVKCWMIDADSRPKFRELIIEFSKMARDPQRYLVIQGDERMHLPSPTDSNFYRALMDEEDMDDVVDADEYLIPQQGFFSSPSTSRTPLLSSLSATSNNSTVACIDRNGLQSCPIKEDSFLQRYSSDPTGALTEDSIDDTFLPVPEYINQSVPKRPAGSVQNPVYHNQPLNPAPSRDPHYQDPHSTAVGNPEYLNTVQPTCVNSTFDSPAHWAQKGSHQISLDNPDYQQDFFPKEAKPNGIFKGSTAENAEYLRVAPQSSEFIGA
BaF3_HER2WT cells, sequence (P04626 whole entry, change not shown): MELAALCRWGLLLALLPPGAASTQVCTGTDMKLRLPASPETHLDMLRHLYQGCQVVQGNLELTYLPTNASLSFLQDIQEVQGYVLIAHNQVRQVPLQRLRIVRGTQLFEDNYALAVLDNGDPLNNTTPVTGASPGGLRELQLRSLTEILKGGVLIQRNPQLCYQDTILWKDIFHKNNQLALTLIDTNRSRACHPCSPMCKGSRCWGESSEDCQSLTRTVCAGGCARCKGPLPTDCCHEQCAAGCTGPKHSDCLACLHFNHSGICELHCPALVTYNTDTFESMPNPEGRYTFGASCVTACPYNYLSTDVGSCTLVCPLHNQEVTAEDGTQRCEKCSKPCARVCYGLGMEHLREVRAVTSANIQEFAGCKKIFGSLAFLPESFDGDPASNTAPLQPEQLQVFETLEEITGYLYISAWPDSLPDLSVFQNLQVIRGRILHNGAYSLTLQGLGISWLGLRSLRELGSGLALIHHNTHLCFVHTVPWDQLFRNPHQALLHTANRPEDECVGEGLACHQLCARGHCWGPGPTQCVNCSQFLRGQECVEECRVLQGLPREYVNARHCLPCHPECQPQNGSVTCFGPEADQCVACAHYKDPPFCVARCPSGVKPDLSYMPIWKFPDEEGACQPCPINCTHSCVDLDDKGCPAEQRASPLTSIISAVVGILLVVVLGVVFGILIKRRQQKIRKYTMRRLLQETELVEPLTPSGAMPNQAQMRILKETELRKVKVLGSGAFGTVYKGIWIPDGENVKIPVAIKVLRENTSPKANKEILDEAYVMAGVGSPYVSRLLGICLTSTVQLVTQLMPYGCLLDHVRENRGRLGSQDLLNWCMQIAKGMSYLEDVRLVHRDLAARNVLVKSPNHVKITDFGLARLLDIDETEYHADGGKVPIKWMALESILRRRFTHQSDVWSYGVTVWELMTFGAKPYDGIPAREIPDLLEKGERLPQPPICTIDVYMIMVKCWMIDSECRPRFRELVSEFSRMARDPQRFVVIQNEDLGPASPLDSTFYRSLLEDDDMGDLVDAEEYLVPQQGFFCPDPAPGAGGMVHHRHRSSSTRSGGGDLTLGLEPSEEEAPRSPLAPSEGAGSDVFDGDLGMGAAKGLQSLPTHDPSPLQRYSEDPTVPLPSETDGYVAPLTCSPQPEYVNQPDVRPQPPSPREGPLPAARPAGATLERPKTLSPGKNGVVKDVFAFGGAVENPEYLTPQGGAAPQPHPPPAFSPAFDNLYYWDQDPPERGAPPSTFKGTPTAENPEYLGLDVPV
T2 sequence (P04626 with tags, fused parts or gaps INS775YVMA limits assumed): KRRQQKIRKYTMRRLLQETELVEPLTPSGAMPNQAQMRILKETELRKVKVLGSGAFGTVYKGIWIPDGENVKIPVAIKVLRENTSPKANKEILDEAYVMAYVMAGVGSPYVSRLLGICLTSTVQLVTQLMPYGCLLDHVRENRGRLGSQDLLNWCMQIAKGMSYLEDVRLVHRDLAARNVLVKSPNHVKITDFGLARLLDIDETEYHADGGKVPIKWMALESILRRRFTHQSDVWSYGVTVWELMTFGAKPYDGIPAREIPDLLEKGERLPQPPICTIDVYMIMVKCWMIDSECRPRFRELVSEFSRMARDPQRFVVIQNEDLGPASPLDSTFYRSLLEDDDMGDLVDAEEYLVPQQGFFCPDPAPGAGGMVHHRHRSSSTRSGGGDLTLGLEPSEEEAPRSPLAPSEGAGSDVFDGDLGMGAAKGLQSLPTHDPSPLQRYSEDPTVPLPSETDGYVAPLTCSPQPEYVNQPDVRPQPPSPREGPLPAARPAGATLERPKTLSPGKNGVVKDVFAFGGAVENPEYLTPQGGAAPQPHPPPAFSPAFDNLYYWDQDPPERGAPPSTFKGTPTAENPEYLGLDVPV
BaF3_HER2YVMA cells, sequence (P04626 with tags, fused parts or gaps DUP772-775): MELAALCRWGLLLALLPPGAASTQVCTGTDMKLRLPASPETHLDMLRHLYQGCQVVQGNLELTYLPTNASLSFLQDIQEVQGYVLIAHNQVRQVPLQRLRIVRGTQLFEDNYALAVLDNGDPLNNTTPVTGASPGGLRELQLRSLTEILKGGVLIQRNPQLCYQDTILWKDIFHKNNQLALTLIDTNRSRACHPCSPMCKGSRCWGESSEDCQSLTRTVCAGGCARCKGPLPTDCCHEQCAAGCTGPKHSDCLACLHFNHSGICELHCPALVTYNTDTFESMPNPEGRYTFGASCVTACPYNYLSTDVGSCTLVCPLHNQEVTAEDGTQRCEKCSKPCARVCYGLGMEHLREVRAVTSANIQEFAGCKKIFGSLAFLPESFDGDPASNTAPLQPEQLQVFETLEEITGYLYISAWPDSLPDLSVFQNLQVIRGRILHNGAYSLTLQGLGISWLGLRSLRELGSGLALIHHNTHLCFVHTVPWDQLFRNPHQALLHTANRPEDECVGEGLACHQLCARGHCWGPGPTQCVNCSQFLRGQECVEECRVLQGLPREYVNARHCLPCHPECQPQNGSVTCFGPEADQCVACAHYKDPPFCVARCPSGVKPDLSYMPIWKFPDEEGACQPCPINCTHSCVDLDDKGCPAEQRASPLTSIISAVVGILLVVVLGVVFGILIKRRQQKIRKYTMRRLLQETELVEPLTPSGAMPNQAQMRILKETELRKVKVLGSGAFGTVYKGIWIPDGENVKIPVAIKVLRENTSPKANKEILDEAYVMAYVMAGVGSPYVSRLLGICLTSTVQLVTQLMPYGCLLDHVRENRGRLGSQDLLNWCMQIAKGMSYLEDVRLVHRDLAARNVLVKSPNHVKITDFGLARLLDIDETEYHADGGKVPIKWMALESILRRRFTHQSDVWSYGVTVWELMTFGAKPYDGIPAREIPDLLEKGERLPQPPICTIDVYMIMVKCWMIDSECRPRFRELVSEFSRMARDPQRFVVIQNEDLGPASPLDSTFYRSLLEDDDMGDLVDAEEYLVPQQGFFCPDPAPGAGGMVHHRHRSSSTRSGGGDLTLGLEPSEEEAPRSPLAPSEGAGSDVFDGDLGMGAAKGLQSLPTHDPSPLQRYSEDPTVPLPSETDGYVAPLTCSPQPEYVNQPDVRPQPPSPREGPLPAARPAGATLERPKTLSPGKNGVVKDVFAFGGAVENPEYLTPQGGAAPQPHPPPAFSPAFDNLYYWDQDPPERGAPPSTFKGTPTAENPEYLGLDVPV

As usually defined, the pIC50 is the negative decadic logarithm of the IC50, by convention in mol/L. Consider `C=C(F)C(=O)N1CC(n2cc(-c3ccn4ncnc(Nc5ccc(Oc6ccn7ncnc7c6)c(C)c5)c34)cn2)C1` [Example 19, 1-(3-(4-(4-((4-([1,2,4]triazolo[1,5-a]pyridin-7-yloxy)-3-methylphenyl)amino)pyrrolo[2,1-f][1,2,4]triazin-5-yl)-1H-pyrazol-1-yl)azetidin-1-yl)-2-fluoroprop-2-en-1-one], for which the GI50 was 0.2 to 0.5 µM in assay [1], 1.5 to 5 µM in assay [2] and 0.5 to 1.5 µM in assay [3]. Besides, the pIC50 is 5.30 to 5.82 in assay [4] and 6.30 to 6.70 in assay [5].
For `Cc1cc(Nc2ncnn3ccc(N4CC5(CCN(C(=O)/C=C/CN(C)C)C5)C4)c23)ccc1Oc1ccn2ncnc2c1` [Example 156, (2E)-4-(dimethylamino)-1-(2-{4-[(3-methyl-4-{[1,2,4]triazolo[1,5-a]pyridin-7-yloxy}phenyl)amino]pyrrolo[2,1-f][1,2,4]triazin-5-yl}-2,6-diazaspiro[3.4]octan-6-yl)but-2-en-1-one], in that order: 0.2 to 0.5 µM, 1.5 to 5 µM, 1.5 to 5 µM, 5.82 to 6.30 and greater than 6.70.
For `C=CC(=O)NC1CCN(C(=O)c2ccn3ncnc(Nc4ccc(Oc5ccn6ncnc6c5)c(C)c4)c23)CC1` [Example 5, N-(1-(4-((4-([1,2,4]triazolo[1,5-a]pyridin-7-yloxy)-3-methylphenyl)amino)pyrrolo[2,1-f][1,2,4]triazine-5-carbonyl)piperidin-4-yl)acrylamide], in that order: less than 0.2 µM, 1.5 to 5 µM, 0.2 to 0.5 µM, 5.30 to 5.82 and 6.30 to 6.70.
Regarding `C=CC(=O)N1CCC(c2ccn3ncnc(Nc4ccc(Oc5ccn6ncnc6c5)c(C)c4)c23)C1` (centres unmarked) [Example 11, 1-(3-(4-((4-([1,2,4]triazolo[1,5-a]pyridin-7-yloxy)-3-methylphenyl)amino)pyrrolo[2,1-f][1,2,4]triazin-5-yl)pyrrolidin-1-yl)prop-2-en-1-one], the results for the GI50 in assay [1], in assay [2] and in assay [3] were less than 0.2 µM, 1.5 to 5 µM and less than 0.2 µM, respectively. The values for the negative-log IC50 (pIC50) in assay [4] and in assay [5] were 5.82 to 6.30 and greater than 6.70, respectively.
With `Cc1cc(Nc2ncnn3ccc(C4CCCN(C(=O)/C=C/CN(C)C)CC4)c23)ccc1Oc1ccn2ncnc2c1` (centres unmarked) [Example 93, (E)-1-(4-(4-((4-([1,2,4]triazolo[1,5-a]pyridin-7-yloxy)-3-methylphenyl)amino)pyrrolo[2,1-f][1,2,4]triazin-5-yl)azepan-1-yl)-4-(dimethylamino)but-2-en-1-one], the GI50 in assay [1] was less than 0.2 µM; in assay [2] it was 1.5 to 5 µM; in assay [3], less than 0.2 µM. Also, the negative logarithm of the IC50 (pIC50) in assay [4] is 6.30 to 6.70; in assay [5], greater than 6.70.
For the molecule `Cc1cc(Nc2ncnn3ccc(C4CN(C(=O)/C=C/CN)C4)c23)ccc1Oc1ccn2ncnc2c1` [Example 87, (E)-1-(3-(4-((4-([1,2,4]triazolo[1,5-a]pyridin-7-yloxy)-3-methylphenyl)amino)pyrrolo[2,1-f][1,2,4]triazin-5-yl)azetidin-1-yl)-4-aminobut-2-en-1-one], the GI50 in assay [1], in assay [2] and in assay [3] was 1.5 to 5 µM each time. The figures for the pIC50 in assay [4] and in assay [5] were 6.30 to 6.70 and greater than 6.70, respectively.
Take `Cc1cc(Nc2ncnn3ccc(C(=O)NCCCN(C)C)c23)ccc1Oc1ccn2ncnc2c1` [Example 178, 4-((4-([1,2,4]triazolo[1,5-a]pyridin-7-yloxy)-3-methylphenyl)amino)-N-(3-(dimethylamino)-propyl)pyrrolo[2,1-f][1,2,4]triazine-5-carboxamide]: the results for the GI50 in assay [1], in assay [2] and in assay [3] were 0.2 to 0.5 µM, greater than 5 µM and 1.5 to 5 µM, respectively. In addition, the negative-log IC50 (pIC50) was 5.82 to 6.30 in assay [4] and greater than 6.70 in assay [5].
For `Cc1cc(Nc2ncnn3ccc(C4CCCN(C(=O)/C=C/CN(C)C)C4)c23)ccc1Oc1ccn2ncnc2c1` (centres unmarked) [Example 96, (E)-1-(3-(4-((4-([1,2,4]triazolo[1,5-a]pyridin-7-yloxy)-3-methylphenyl)amino)-pyrrolo-[2,1-f][1,2,4]-triazin-5-yl)piperidin-1-yl)-4-(dimethylamino)but-2-en-1-one] the same measures were less than 0.2 µM, 1.5 to 5 µM, 0.5 to 1.5 µM, 5.82 to 6.30 and greater than 6.70.
In the case of `CN(C)C/C=C/C(=O)N1CC(c2ccn3ncnc(Nc4cnc(Oc5cccc(C(F)(F)F)c5)c(Cl)c4)c23)C1` [Example 90, (E)-1-(3-(4-((5-chloro-6-(3-(trifluoromethyl)phenoxy)pyridin-3-yl)amino)pyrrolo[2,1-f][1,2,4]triazin-5-yl)azetidin-1-yl)-4-(dimethylamino)but-2-en-1-one], the GI50 in assay [1], in assay [2] and in assay [3] was 1.5 to 5 µM in each case. In addition, the pIC50 in assay [4], in assay [5] and in assay [6] was 5.30 to 5.82 each time.
Take `Cc1cc(Nc2ncnn3ccc(C4CCN(C(=O)CCCN(C)C)CC4)c23)ccc1Oc1ccn2ncnc2c1` [Example 23, 1-(4-(4-((4-([1,2,4]triazolo[1,5-a]pyridin-7-yloxy)-3-methylphenyl)amino)pyrrolo[2,1-f][1,2,4]triazin-5-yl)piperidin-1-yl)-4-(dimethylamino)butan-1-one]: the results for the GI50 in assay [1], in assay [2] and in assay [3] were 0.5 to 1.5 µM, 1.5 to 5 µM and 1.5 to 5 µM, respectively. The pIC50 in assay [4] is 5.82 to 6.30; in assay [5] it was greater than 6.70.
`C=CC(=O)N1CCC2(C1)CN(c1ccn3ncnc(Nc4ccc(Oc5ccn6ncnc6c5)c(C)c4)c13)C2` [Example 155, 1-(2-{4-[(3-methyl-4-{[1,2,4]triazolo[1,5-a]pyridin-7-yloxy}phenyl)amino]pyrrolo[2,1-f][1,2,4]triazin-5-yl}-2,6-diazaspiro[3.4]octan-6-yl)prop-2-en-1-one]: the GI50 in assay [1] is less than 0.2 µM; in assay [2], 1.5 to 5 µM; in assay [3], 0.2 to 0.5 µM. Moreover, the pIC50 in assay [4] is 5.30 to 5.82; in assay [5], greater than 6.70.
With `C=CC(=O)N1CC2(C1)CN(c1ccn3ncnc(Nc4ccc(Oc5ccn6ncnc6c5)c(C)c4)c13)C2` [Example 16, 1-(6-(4-((4-([1,2,4]triazolo[1,5-a]pyridin-7-yloxy)-3-methylphenyl)amino)pyrrolo[2,1-f][1,2,4]triazin-5-yl)-2,6-diazaspiro[3.3]heptan-2-yl)prop-2-en-1-one], the GI50 in assay [1] lay in the range of 0.2 to 0.5 µM; in assay [2] it was 1.5 to 5 µM; in assay [3] it was 0.5 to 1.5 µM. Moreover, the pIC50 was 5.30 to 5.82 in assay [4] and greater than 6.70 in assay [5].
As for `Cc1cc(Nc2ncnn3ccc(C4CC5(C4)CN(C(=O)/C=C/CN(C)C)C5)c23)ccc1Oc1ccn2ncnc2c1` [Example 95, (E)-1-(6-(4-((4-([1,2,4]triazolo[1,5-a]pyridin-7-yloxy)-3-methylphenyl)amino)pyrrolo[2,1-f][1,2,4]triazin-5-yl)-2-azaspiro[3.3]heptan-2-yl)-4-(dimethylamino)but-2-en-1-one], the GI50 was 0.2 to 0.5 µM in assay [1], 1.5 to 5 µM in assay [2] and 0.5 to 1.5 µM in assay [3]. The negative-log IC50 (pIC50) is 6.30 to 6.70 in assay [4] and greater than 6.70 in assay [5].
For `Cc1cc(Nc2ncnn3ccc(-c4cnn(CCNC(=O)/C=C/CN(C)C)c4)c23)ccc1Oc1ccn2ncnc2c1` [Example 103, (E)-N-(2-(4-(4-((4-([1,2,4]triazolo[1,5-a]pyridin-7-yloxy)-3-methylphenyl)amino)pyrrolo[2,1-f][1,2,4]triazin-5-yl)-1H-pyrazol-1-yl)ethyl)-4-(dimethylamino)but-2-enamide], in that order: 1.5 to 5 µM, 1.5 to 5 µM, 1.5 to 5 µM, 5.30 to 5.82 and 6.30 to 6.70.

Values taken from US20240132521A1, “COMPOUNDS AND METHODS FOR MODULATING HER2” (Iambic Therapeutics, Inc., priority 2022, published 2024).
